In patent US20070099855A1 (priority 2003, published 2007):

Tested on: SARS-associated coronavirus
Test: organism not typed
Format: cell-based
Details: for EC50: Vero
[1] = Vero cell cultures, tested as in Example 1
[2] = Vero cell cultures, cytopathic effect scored 72-96 h after infection, mean of eight assays

O=c1cnn([C@@H]2O[C@H](CO)[C@@H](O)[C@H]2O)c(=O)[nH]1 [Compound 6-azauridine, 6-azauridine]
effect on replication of the SARS-associated coronaviruses (Vero cells): inhibited replication of SARS-CV at non-toxic doses
Selectivity Index (ratio CC50/EC50, Vero cells): 6
Selectivity Index (ratio CC50/EC50, Vero cells, listed as 6-azuridine): 5

COC(=O)[C@@]1(C)CC[C@]2(C)CC[C@]3(C)C(=CC(=O)C4[C@@]5(C)CCC(OC6OC(C(=O)NN)C(O)C(O)C6OC6OC(C(=O)NN)C(O)C(O)C6O)C(C)(C)C5CC[C@]43C)C2C1 (some centres unmarked) [Compound 7]
Therap. IndexI (Vero cells): 4
EC50 [1]: 16 µM

COC(=O)[C@@]1(C)CC[C@]2(C)CC[C@]3(C)C(=CC(=O)C4[C@@]5(C)CCC(OC6OC(CO)C(O)C(O)C6OC6OC(CO)C(O)C(O)C6O)C(C)(C)C5CC[C@]43C)C2C1 (some centres unmarked) [Compound 8]
Therap. IndexI (Vero cells): 6
EC50 [1]: 8 µM

CC1(C)C(OC2OC(C(=O)O)C(O)C(O)C2OC2OC(C(=O)O)C(O)C(O)C2O)CC[C@@]2(C)C1CC[C@]1(C)C2C(=O)C=C2C3C[C@@](C)(C(=O)O)CC[C@]3(C)CC[C@]21C.N (some centres unmarked) [Glycyrrhizin Monoammonium Salt]
Therap. IndexI (Vero cells): 2
EC50 [1]: 327 µM

CC1(C)C(OC2OC(C(=O)O)C(O)C(O)C2OC2OC(C(=O)O)C(O)C(O)C2O)CC[C@]2(C)[C@H]3C(=O)C=C4[C@@H]5C[C@@](C)(C(=O)O)CC[C@]5(C)CC[C@@]4(C)[C@]3(C)CC[C@@H]12 (stereo partly drawn) [Glycyrrhizin, (3-beta,20-beta)-20-Carboxy-11-oxo-30-norolean-12-en-3-yl 2-O-beta-D-glucopyranuronosyl-alpha-D-glucopyranosiduronic acid]
EC50 (compound added after virus adsorption, Vero cells): 600 µg/mL
EC50 (compound added during and after virus adsorption, Vero cells): 300 µg/mL
EC50 (compound added during virus adsorption, Vero cells): 2400 µg/mL
Selectivity Index (after virus adsorption, CC50/EC50): >33
Selectivity Index (during and after virus adsorption, CC50/EC50): >67

COc1c(C)c2c(c(O)c1C/C=C(\C)CCC(=O)O)C(=O)OC2 [Mycophenolic acid]
effect on replication of the SARS-associated coronaviruses (Vero cells): did not affect replication
EC50 [2]: > 50 µg/mL

NC(=O)c1[nH]nc([C@@H]2O[C@H](CO)[C@@H](O)[C@H]2O)c1O [Pyrazofurin]
effect on replication of the SARS-associated coronaviruses (Vero cells): inhibited replication of SARS-CV at non-toxic doses
Selectivity Index (ratio CC50/EC50, Vero cells): 12

NC(=O)c1ncn([C@@H]2O[C@H](CO)[C@@H](O)[C@H]2O)n1 [Ribavirin]
effect on replication of the SARS-associated coronaviruses (Vero cells): did not affect replication
EC50 [2]: > 1000 µg/mL
